Test [1] has as its target T1, (Homo sapiens, UniProt P08069).
T1 construct: human IGF1R kinase domain residues M954-C1367; made in house; host or cells: baculovirus expression (insect cells)
Kind of test: IGF1R kinase assay (LCCA), IGF 0P. The note with it: IGF1R kinase LCCA assay. Type of test: biochemical. How it is done:
(§1) Kinase activity and compound inhibition are investigated using one or more of the three assay formats described below. The ATP concentrations for each assay are selected to be close to the Michaelis-Menten constant (KM) for each individual kinase. Dose-response experiments are performed at 10 different inhibitor concentrations in a 384-well plate format. […] Y=Min+(Max−Min)/(1+(X/IC50)^H) Equation (2)
(§2) IGF1R kinase biochemical activity was assessed using a Luciferase-Coupled Chemiluminescent Kinase assay (LCCA) format. Kinase activity was measured as the percent ATP remaining following the kinase reaction. Remaining ATP was detected by luciferase-luciferin-coupled chemiluminescence. Specifically, the reaction was initiated by mixing test compounds, 3 μM ATP, 4 μM poly EY peptide and 4 nM IGF1R (baculovirus expressed human IGF1R kinase domain residues M954-C1367) in a 20 uL assay buffer (20 mM Tris-HCL pH7.5, 10 mM MgCl2, 0.02% Triton X-100, 1 mM DTT, 2 mM MnCl2). The mixture is incubated at ambient temperature for 2 hours after which 20 uL luciferase-luciferin mix is added and the chemiluminescent signal read using a Wallac Victor^2 reader.

A further test deals with T2, IGF 3P (Homo sapiens, UniProt P08069).
T2 construct: human IGF1R kinase domain residues M954-C1367; made in house; host or cells: baculovirus expression (insect cells)
T2 sequence (P08069 954-1367): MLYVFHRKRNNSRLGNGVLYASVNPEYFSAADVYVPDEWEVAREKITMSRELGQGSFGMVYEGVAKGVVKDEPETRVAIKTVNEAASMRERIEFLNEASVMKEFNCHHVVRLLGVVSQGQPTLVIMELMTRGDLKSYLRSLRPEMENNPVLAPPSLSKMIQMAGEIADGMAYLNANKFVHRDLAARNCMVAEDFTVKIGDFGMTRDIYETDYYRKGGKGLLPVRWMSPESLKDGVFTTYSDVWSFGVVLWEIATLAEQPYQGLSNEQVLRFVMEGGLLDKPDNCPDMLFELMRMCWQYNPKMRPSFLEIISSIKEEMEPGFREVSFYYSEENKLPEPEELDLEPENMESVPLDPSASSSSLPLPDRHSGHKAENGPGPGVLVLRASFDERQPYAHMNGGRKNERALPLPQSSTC
As to the kind of experiment: IGF1R kinase assay (LCCA), IGF 3P. Type of test: biochemical. The note with it: IGF1R kinase LCCA assay. On the procedure: as §1, §2

Bounds are passed on as bounds.

The term IC50 denotes the concentration at which inhibition is half-maximal. A lower IC50 goes with greater potency in that assay.

T1 sequence (P08069 954-1367): as above

As for `Brc1cnc(NCc2nccs2)nc1Nc1cc(C2CC2)[nH]n1` [Example 179], the IC50 (in test [1]; at IGF 3P) was 0.5 to 5 µM throughout.
For the compound `Brc1cnc(Nc2ccc3c(c2)CCC3)nc1Nc1cc(C2CC2)[nH]n1` [Example 180], the half-inhibitory concentration (IC50) (in test [1]; against IGF 3P) was 0.5 to 5 µM throughout.
Take `CCN(CC)CCCNC(=O)c1ccc(Nc2ncc(C)c(Nc3cc(C4CC4)n[nH]3)n2)cc1` [Example 181]: the IC50 (in test [1]; against IGF 3P) was 0.5 to 5 µM in each case.
As to `CCN(CC)CCCNc1cc(Nc2cc(C3CC3)n[nH]2)nc(Nc2ccccc2Cl)n1` [Example 182], the IC50 (in test [1]; on IGF 3P) was 0.5 to 5 µM throughout.
On to `CCN(CC)CCNC(=O)c1ccc(Nc2nccc(Nc3cc(C4CC4)n[nH]3)n2)cc1` [Example 184], for which the IC50 (in test [1]; against IGF 3P) was 0.5 to 5 µM throughout.
As for `CN1CCN(c2ccc(CNc3ncc(Br)c(Nc4cc(C5CC5)n[nH]4)n3)cc2)CC1` [Example 186], the IC50 (in test [1]; against IGF 3P) was 0.5 to 5 µM each time.
Regarding `COc1cc(CNc2ncc(Br)c(Nc3cc(C4CC4)[nH]n3)n2)cc(OC)c1` [Example 187], the IC50 (in test [1]; against IGF 3P) was 0.5 to 5 µM in each case.
With `Brc1cnc(NCc2cc(-c3ccccc3)no2)nc1Nc1cc(C2CCCC2)n[nH]1` [Example 189], the IC50 in test [1] is 0.05 to 0.5 µM; against IGF 3P, 0.5 to 5 µM.
With `Clc1ccccc1Nc1ncc(Br)c(Nc2cc[nH]n2)n1` [Example 192], the IC50 (in test [1]; on IGF 3P) was 0.5 to 5 µM in each case.
For the compound `CN(C)c1ccc(CNc2ncc(Br)c(Nc3cc(C4CC4)n[nH]3)n2)cc1` [Example 193], the half-inhibitory concentration (IC50) in test [1] is over 5 µM; against IGF 3P it was 0.5 to 5 µM.
On to `CCN(CC)CCCNC(=O)c1ccc(Nc2nccc(Nc3cc(C4CC4)n[nH]3)n2)cc1` [Example 195], for which the IC50 (in test [1]; against IGF 3P) was 0.5 to 5 µM throughout.
For the compound `N#Cc1cccc(Nc2ncc(Br)c(Nc3cc(C4CC4)n[nH]3)n2)c1` [Example 196], the IC50 (in test [1]; against IGF 3P) was 0.5 to 5 µM in each case.
For the compound `Brc1cnc(NCC2CCNCC2)nc1Nc1cc(C2CC2)n[nH]1` [Example 198], the IC50 is over 5 µM in test [1] and 0.5 to 5 µM against IGF 3P.
Take `Brc1cnc(N2CCOCC2)nc1Nc1cc(C2CC2)[nH]n1` [Example 200]: the IC50 was over 5 µM in test [1] and 0.5 to 5 µM against IGF 3P.
As for `Brc1cnc(NCC2CCCO2)nc1Nc1cc(C2CC2)n[nH]1` (centres unmarked) [Example 201], the IC50 in test [1] is over 5 µM; on IGF 3P, 0.5 to 5 µM.
Regarding `COc1cc(Nc2nccc(Nc3cc(C4CC4)n[nH]3)n2)cc(OC)c1` [Example 203], the IC50 (in test [1]; at IGF 3P) was 0.5 to 5 µM throughout.
Turning to `CN(Cc1ccccc1Cl)c1ncc(Br)c(Nc2cc(C3CC3)[nH]n2)n1` [Example 204], the half-maximal inhibitory concentration (IC50) (in test [1]; at IGF 3P) was 0.5 to 5 µM throughout.
Consider `Clc1cccc(Nc2nc(Nc3ccccc3Cl)ncc2Br)c1` [Example 205], for which the IC50 (in test [1]; at IGF 3P) was 0.5 to 5 µM throughout.
As for `COc1ccccc1CNc1nc(C)cc(Nc2cc(C3CC3)[nH]n2)n1` [Example 207], the concentration for half-maximal inhibition (IC50) (in test [1]; on IGF 3P) was 0.5 to 5 µM in each case.
As for `Clc1ccccc1Nc1nc(Nc2cc(C3CC3)n[nH]2)c2nc[nH]c2n1` [Example 210], the values for the half-inhibitory concentration (IC50) (in test [1]; against IGF 3P) were 0.05 to 0.5 µM and 0.5 to 5 µM, respectively.
`Cc1cc(Nc2cc(C3CC3)n[nH]2)nc(Nc2ccc(N(C)C)cc2)n1` [Example 213]: the IC50 (in test [1]; at IGF 3P) was 0.5 to 5 µM throughout.
For the compound `Brc1cnc(NC2CCNCC2)nc1Nc1cc(C2CC2)[nH]n1` [Example 214], the half-maximal inhibitory concentration (IC50) in test [1] was over 5 µM; at IGF 3P it was 0.5 to 5 µM.
For the compound `Cc1cc(Nc2nc(Nc3ccc(N4CCOCC4)cc3)ncc2Br)n(C)n1` [Example 215], the IC50 was over 5 µM in test [1] and 0.5 to 5 µM against IGF 3P.
The like results for `Brc1cnc(NCc2csc(-c3cccs3)n2)nc1Nc1cc(C2CC2)[nH]n1` [Example 218] were, in that order, 0.5 to 5 µM and 0.5 to 5 µM.
`Nc1cnc(Nc2ccccc2Cl)nc1Nc1cc(C2CC2)n[nH]1` [Example 220]: the IC50 in test [1] lay in the range of 0.05 to 0.5 µM; at IGF 3P it was 0.5 to 5 µM.
Take `CCN(CC)CCNC(=O)c1cc2ccc(Nc3nc(C)cc(Nc4cc(C5CC5)n[nH]4)n3)cc2s1` [Example 221]: the concentration for half-maximal inhibition (IC50) (in test [1]; against IGF 3P) was 0.5 to 5 µM each time.
Turning to `Clc1ccccc1Nc1ncc(Br)c(Nc2ccccc2Cl)n1` [Example 222], the IC50 (in test [1]; at IGF 3P) was 0.5 to 5 µM each time.
Take `CN(c1ccccc1)c1ncc(Br)c(Nc2cc(C3CC3)[nH]n2)n1` [Example 223]: the IC50 fell in the range of 0.05 to 0.5 µM in test [1] and 0.5 to 5 µM against IGF 3P.
`c1cc(Nc2cc(C3CC3)n[nH]2)nc(Nc2ccc(N3CCOCC3)cc2)n1` [Example 224]: the IC50 (in test [1]; on IGF 3P) was 0.5 to 5 µM throughout.
For the compound `Clc1cccc(CCNc2ncc(Br)c(Nc3cc(C4CC4)n[nH]3)n2)c1` [Example 226], the figures for the IC50 (in test [1]; at IGF 3P) were over 5 µM and 0.5 to 5 µM, respectively.
For `CC(=O)Nc1ccc(Cl)c(Nc2nccc(Nc3cc(C4CC4)[nH]n3)n2)c1` [Example 227] the same measures were 0.5 to 5 µM and 0.5 to 5 µM.
For `O=C(NCCN1CCOCC1)c1nc(Nc2ccccc2Cl)nc(Nc2cc(C3CC3)n[nH]2)c1[N+](=O)[O-]` [Example 228], the IC50 (in test [1]; against IGF 3P) was 0.5 to 5 µM each time.
For the compound `Clc1ccc(CCNc2ncc(Br)c(Nc3cc(C4CC4)n[nH]3)n2)cc1` [Example 230], the IC50 in test [1] is over 5 µM; on IGF 3P, 0.5 to 5 µM.
For `FC(F)(F)Oc1ccc(Nc2ncc(Br)c(Nc3cc(C4CC4)[nH]n3)n2)c(Br)c1` [Example 237], the figures for the concentration for half-maximal inhibition (IC50) (in test [1]; against IGF 3P) were over 5 µM and 0.5 to 5 µM, respectively.
As to `CN(C)c1ccc(Nc2nccc(Nc3cc(C4CC4)n[nH]3)n2)cc1` [Example 238], the IC50 (in test [1]; against IGF 3P) was 0.5 to 5 µM in each case.
With `O=C(NCc1ccccc1)c1nc(Nc2ccccc2Cl)nc(Nc2cc(C3CC3)n[nH]2)c1[N+](=O)[O-]` [Example 239], the IC50 (in test [1]; against IGF 3P) was 0.5 to 5 µM each time.
Take `Clc1ccc(CCNc2ncc(Br)c(Nc3cc(C4CC4)n[nH]3)n2)c(Cl)c1` [Example 240]: the IC50 in test [1] was over 5 µM; against IGF 3P, 0.5 to 5 µM.
Take `Fc1c(Cl)cccc1Nc1ncc(Br)c(Nc2cc(C3CC3)n[nH]2)n1` [Example 241]: the concentration for half-maximal inhibition (IC50) (in test [1]; against IGF 3P) was 0.5 to 5 µM in each case.
As for `c1ccc(CN2CCc3c(nc(NCc4cc(-c5ccccc5)no4)nc3Nc3cc(C4CC4)[nH]n3)C2)cc1` [Example 242], the IC50 (in test [1]; on IGF 3P) was 0.5 to 5 µM each time.
`Cc1cc(Nc2cc(-c3ccco3)[nH]n2)nc(NCc2cc(-c3ccccc3)no2)n1` [Example 246]: the IC50 (in test [1]; against IGF 3P) was 0.5 to 5 µM throughout.
With `COc1ccc(CNc2ncc(Br)c(Nc3cc(C4CC4)n[nH]3)n2)cc1OC` [Example 247], the half-maximal inhibitory concentration (IC50) in test [1] was over 5 µM; against IGF 3P, 0.5 to 5 µM.
`CN1CCN(c2ncc(Br)c(Nc3cc(C4CC4)[nH]n3)n2)CC1` [Example 249]: the figures for the IC50 (in test [1]; against IGF 3P) were over 5 µM and 0.5 to 5 µM, respectively.
Consider `Cc1cc(Nc2cc(C3CC3)[nH]n2)nc(NCc2nc(-c3ccccc3)cs2)n1` [Example 252], for which the IC50 (in test [1]; against IGF 3P) was 0.5 to 5 µM in each case.
As for `CN(C)CCCNc1ncc(Br)c(Nc2cc(C3CC3)n[nH]2)n1` [Example 254], the IC50 in test [1] was over 5 µM; on IGF 3P, 0.5 to 5 µM.
For the compound `Brc1cnc(Nc2ccc(N3CCNCC3)cc2)nc1Nc1cc(C2CC2)n[nH]1` [Example 255], the IC50 is over 5 µM in test [1] and 0.5 to 5 µM against IGF 3P.
Regarding `COc1cc(Nc2ncc(Br)c(Nc3cc(C4CC4)n[nH]3)n2)cc(C(F)(F)F)c1` [Example 258], the IC50 (in test [1]; against IGF 3P) was over 5 µM in each case.
In the case of `Cc1cc(Nc2cc(C3CC3)n[nH]2)nc(Nc2cc(F)cc(F)c2)n1` [Example 259], the IC50 in test [1] is 0.5 to 5 µM; on IGF 3P, over 5 µM.
`Brc1cnc(Nc2ccccc2N2CCOCC2)nc1Nc1cc(C2CC2)n[nH]1` [Example 260]: the IC50 (in test [1]; on IGF 3P) was over 5 µM each time.
With `COc1cc(Nc2nc(C)cc(Nc3cc(C4CC4)[nH]n3)n2)cc(OC)c1` [Example 261], the IC50 in test [1] was 0.5 to 5 µM; on IGF 3P it was over 5 µM.
On to `FC(F)(F)c1cccc(CNc2ncc(Br)c(Nc3cc(C4CC4)n[nH]3)n2)c1` [Example 263], for which the IC50 is 0.5 to 5 µM in test [1] and over 5 µM on IGF 3P.
As for `FC(F)(F)Oc1cccc(Nc2ncc(Br)c(Nc3cc(C4CC4)n[nH]3)n2)c1` [Example 264], the IC50 (in test [1]; against IGF 3P) was over 5 µM in each case.
Turning to `Brc1cnc(NCc2cnn(-c3ccccc3)n2)nc1Nc1cc(C2CC2)n[nH]1` [Example 266], the concentration for half-maximal inhibition (IC50) in test [1] was 0.5 to 5 µM; on IGF 3P, over 5 µM.
For `Clc1ccccc1Nc1ncc(Br)c(Nc2n[nH]c3ccccc23)n1` [Example 267], the IC50 (in test [1]; on IGF 3P) was over 5 µM throughout.
Consider `Cc1cc(Nc2cc(C3CC3)n[nH]2)nc(Nc2ccc(N3CCOCC3)cc2)n1` [Example 268], for which the IC50 (in test [1]; at IGF 3P) was over 5 µM in each case.
With `Brc1cnc(Nc2cccc(OCc3ccccc3)c2)nc1Nc1cc(C2CC2)n[nH]1` [Example 269], the IC50 (in test [1]; at IGF 3P) was over 5 µM throughout.

The values above are taken from patent US8211929B2, “Pyrimidine derivatives as kinase modulators and method of use” (Exelixis, Inc., priority 2004, dated 2012).
